The values below come from PMC6209530 (Journal of the American Chemical Society, 2018).

One assay concerns the target TLR1 and TLR2 (Mus musculus, UniProt Q9EPQ1+Q9QUN7). The assay is classed as cell-based. The following applies: 500 nM, macrophages from mutant or knockout mice.
For the next assay, the system named is human THP-1 cells. Description: cell growth inhibition. The assay is classed as cell-based. The following applies: read-out: IC50, cell growth inhibition.
A further assay has as its system B16 mouse melanoma. Description: cell growth inhibition. The assay is classed as cell-based. The settings on record: read-out: IC50, cell growth inhibition.
Assay [1] concerns differentiated human THP-1 cells. The assay is classed as cell-based.
Assay [2] concerns mouse (NIH/3T3) fibroblast cells. Description: cell growth inhibition. The settings on record: read-out: IC50, cell growth inhibition. The assay is classed as cell-based.
The test system of assay [3] is HCT116 human colon cancer. The assay is described as follows: cell growth inhibition. The assay is classed as cell-based. The following applies: read-out: IC50, cell growth inhibition.
In assay [4] the test system is murine melanoma (B16-OVA). The settings on record: combination with anti-PD-L1, diprovocim/OVA i.m., cited from earlier work.
Assay [5] concerns mouse macrophages. Description: cell growth inhibition. The assay is classed as cell-based. The settings on record: read-out: IC50, cell growth inhibition.
The subject of a further assay is L1210 mouse leukemia. The assay is described as follows: cell growth inhibition. The assay is classed as cell-based. The following applies: read-out: IC50, cell growth inhibition.
The subject of assay [6] is IKKα, IKKβ, p38, JNK, and ERK. The following applies: cited from earlier work.
For assay [7], the system named is human foreskin (HFF) fibroblast cells. Description: cell growth inhibition. The assay is classed as cell-based. The settings on record: read-out: IC50, cell growth inhibition.
Assay [8] relates to mouse macrophages. Description: stimulated release of TNF-α from mouse macrophages. The assay is classed as cell-based. The settings on record: read-out: EC50, stimulated release of TNF-α.
For a further assay, the system named is mice. The following applies: cited from earlier work; for adjuvant activity in mice: intramuscular (i.m.) injection with antigen (OVA).
[9] abbreviates: read-out: EC50, stimulated release of TNF-α, differentiated human THP-1 cells.

Like-named read-outs stand apart in the source and are kept apart here. Peptide text beside a SMILES is read from it. * marks the point of attachment. X1 = CCCCCCCCCCCCCCCC(=O)OCC(C*)OC(=O)CCCCCCCCCCCCCCC; Palmitoyl = CCCCCCCCCCCCCCCC(=O)*

Sequence of TLR1 and TLR2 (Q9EPQ1 26-795): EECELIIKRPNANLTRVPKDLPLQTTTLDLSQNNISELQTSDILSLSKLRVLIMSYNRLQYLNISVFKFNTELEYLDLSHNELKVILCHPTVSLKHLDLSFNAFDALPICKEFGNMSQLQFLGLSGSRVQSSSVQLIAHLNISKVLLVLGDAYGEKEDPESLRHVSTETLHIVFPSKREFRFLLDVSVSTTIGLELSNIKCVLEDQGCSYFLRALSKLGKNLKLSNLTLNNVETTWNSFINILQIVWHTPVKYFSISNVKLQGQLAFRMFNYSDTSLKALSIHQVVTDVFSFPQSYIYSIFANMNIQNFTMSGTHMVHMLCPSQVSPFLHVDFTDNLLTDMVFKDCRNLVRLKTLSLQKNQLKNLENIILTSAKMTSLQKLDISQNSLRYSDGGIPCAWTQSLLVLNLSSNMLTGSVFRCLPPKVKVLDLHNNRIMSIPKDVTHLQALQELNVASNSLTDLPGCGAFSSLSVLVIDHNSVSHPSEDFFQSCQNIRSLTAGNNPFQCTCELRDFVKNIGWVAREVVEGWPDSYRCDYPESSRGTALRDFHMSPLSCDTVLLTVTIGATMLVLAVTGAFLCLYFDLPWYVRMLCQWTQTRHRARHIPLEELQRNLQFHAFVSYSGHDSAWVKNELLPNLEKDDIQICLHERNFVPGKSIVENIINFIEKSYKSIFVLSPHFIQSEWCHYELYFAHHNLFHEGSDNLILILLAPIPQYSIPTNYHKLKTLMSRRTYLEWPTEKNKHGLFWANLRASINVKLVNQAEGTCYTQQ
Sequence of TLR1 and TLR2 (Q9QUN7 25-784): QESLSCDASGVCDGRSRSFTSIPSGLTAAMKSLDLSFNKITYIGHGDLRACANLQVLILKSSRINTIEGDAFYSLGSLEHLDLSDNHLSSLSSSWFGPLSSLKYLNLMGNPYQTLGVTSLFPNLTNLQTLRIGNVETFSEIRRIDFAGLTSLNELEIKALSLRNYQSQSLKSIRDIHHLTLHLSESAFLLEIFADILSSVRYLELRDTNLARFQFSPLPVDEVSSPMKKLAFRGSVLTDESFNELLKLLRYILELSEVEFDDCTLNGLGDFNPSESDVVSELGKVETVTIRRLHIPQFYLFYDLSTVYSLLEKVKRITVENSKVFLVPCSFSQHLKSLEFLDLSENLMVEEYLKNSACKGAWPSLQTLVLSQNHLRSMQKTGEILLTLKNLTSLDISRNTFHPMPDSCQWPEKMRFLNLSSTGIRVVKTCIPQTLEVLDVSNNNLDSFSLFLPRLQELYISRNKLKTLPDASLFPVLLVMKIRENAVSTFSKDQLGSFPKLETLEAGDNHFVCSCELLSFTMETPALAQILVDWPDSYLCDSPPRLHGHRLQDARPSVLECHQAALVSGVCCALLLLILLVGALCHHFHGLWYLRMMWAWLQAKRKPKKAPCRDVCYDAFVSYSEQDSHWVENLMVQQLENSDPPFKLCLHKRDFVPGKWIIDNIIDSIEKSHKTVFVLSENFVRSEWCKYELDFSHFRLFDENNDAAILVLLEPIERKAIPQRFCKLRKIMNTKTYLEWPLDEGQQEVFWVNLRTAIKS

Usually IC50 stands for the point on the concentration scale where inhibition reaches its midpoint. The EC50 is the concentration that produces a half-maximal response. Consider `O=C(N[C@H]1C[C@@H]1c1ccccc1)[C@@H]1CN(C(=O)c2ccc(C(=O)N3C[C@@H](C(=O)N[C@H]4C[C@@H]4c4ccccc4)[C@H](C(=O)N[C@H]4C[C@@H]4c4ccccc4)C3)cc2)C[C@H]1C(=O)N[C@H]1C[C@@H]1c1ccccc1` [Compound 3], for which the “dependence of activity on downstream signaling proteins” value at TLR1 and TLR2 is “dependent on TLR1/TLR2 signaling through MyD88, TIRAP, and IRAK4”. In addition, the IC50 (in the assay on human THP-1 cells; in the assay on B16 mouse melanoma; in assay [2]; in assay [3]; in the assay with mouse macrophages [5]; in the assay with L1210 mouse leukemia) was > 10 µM throughout. Further, the IC50 in [7] is > 10 µM. In addition, the “times more potent than Pam3CSK4” value in [1] (direct side-by-side comparison, human THP-1 cells) was 5–10 times. Moreover, in assay [1] (human versus mouse cell release of TNF-α), the “potency differential human THP-1 cells versus mouse macrophages” value was found to be 10 fold. The half-maximal effective concentration (EC50) was 0.11 nM in [1] (setting [9]) and 1.3 nM with mouse macrophages [8]. Moreover, the “protection from tumor rechallenge” value in assay [4] is on record as “protected mice from tumor rechallenge”. The figures for the “survival of mice implanted with B16-OVA melanoma” value in [4] and in assay [4] (listed as diprovocim-1) were “cured or prolonged survival of mice” and “cured or prolonged the survival of mice”, respectively. The “phosphorylation and activation of IKKα, IKKβ, p38, JNK, and ERK” value in assay [6] was “induce the phosphorylation and activation”. Besides, the “adjuvant activity in TLR1 and TLR2 deficient mice” value in the assay with mice (i.m. with OVA, TLR1 and TLR2 deficient mice) was “inactive”. The “adjuvant activity in mice” value with mice is recorded as “active as an adjuvant”; in the assay with mice (listed as Diprovocim-1), “acts as an adjuvant”.

For `O=C(NCCc1ccc(F)cc1)[C@@H]1CN(C(=O)c2ccc(C(=O)N3C[C@@H](C(=O)NCCc4ccc(F)cc4)[C@H](C(=O)NCCc4ccc(F)cc4)C3)cc2)C[C@H]1C(=O)NCCc1ccc(F)cc1` [Compound 4], the “fold more potent than the all racemate (69)” value in [1] (human THP-1 cells) is recorded as 3 fold. Besides, in [1] (setting [9]), the EC50 came out at 50 nM.

For `O=C(NCCc1ccc(F)cc1)C1CN(C(=O)c2ccc(C(=O)N3CC(C(=O)NCCc4ccc(F)cc4)C(C(=O)NCCc4ccc(F)cc4)C3)cc2)CC1C(=O)NCCc1ccc(F)cc1` (centres unmarked) [Compound 69], the EC50 in assay [1] (setting [9]) was 100 nM.

Consider `CCCCCCCCCCCCCCCC(=O)N[C@@H](CSCC(COC(=O)CCCCCCCCCCCCCCC)OC(=O)CCCCCCCCCCCCCCC)C(=O)N[C@@H](CO)C(=O)N[C@@H](CCCCN)C(=O)N[C@@H](CCCCN)C(=O)N[C@@H](CCCCN)C(=O)N[C@@H](CCCCN)C(=O)O` (some centres unmarked) [Pam3CSK4, reference compound] (Palmitoyl-C(X1)SKKKK-OH; N-terminus and C-terminus assumed), for which the EC50 in assay [1] is 0.91 nM.
